Reference: PMC5519068 (PLoS ONE, 2017)
Read-outs that look alike come from different tables or passages of the source.

How the values were obtained:
MOLM-13 cells = test: Growth inhibition, CellTiter-Blue viability, 72 h; assay type: cell-based; settings: Homo sapiens, MOLM-13 (Flt3-ITD+), read-out: Growth Suppression in AML Cell Lines (IC50, nM) MOLM-13
Experimental: (§1) Cells were seeded at a density of 100,000 cells per 1.0 ml in 48-well culture plates. Compounds were added to various concentrations while holding the DMSO concentration constant at 0.1%. Cell viability was assessed 72 hours later using the CellTiter-Blue Cell Viability assay (Promega) according to the manufacturer’s protocol and a SpectraMax Multi-Mode Microplate Reader (Molecular Devices). IC50 values were determined by non-linear regression analysis of concentration-response curves using the GraphPad PRISM software package (version 6.0). Apoptosis was determined using the same cell culture conditions and the Apo-ONE Homogeneous Caspase-3/7 Assay (Promega) and the manufacturer’s protocol.
(§2) Fig 2 Fes tyrosine kinase inhibitors induce growth arrest in Flt3-ITD^+ AML cell lines. A) The Flt3-ITD^+ cell lines MV4-11, MOLM-13, and MOLM-14, along with THP-1 (wild-type FLT3) were incubated with each of the kinase inhibitors shown over a range of concentrations, and cell viability was measured 72 h later using the CellTiter-Blue Assay (see Materials and methods). Raw fluorescence data were corrected for background and then normalized to cultures grown in the presence of the DMSO carrier solvent. Each assay condition was performed in triplicate, and results are presented as the mean of the normalized values ± the SD. The resulting dose-response curves were fitted by non-linear regression analysis, and the resulting IC50 values are shown in Table 1.

MV4-11 cells = test: Growth inhibition, CellTiter-Blue viability, 72 h; assay type: cell-based; settings: Homo sapiens, MV4-11 (Flt3-ITD+), read-out: Growth Suppression in AML Cell Lines (IC50, nM) MV4-11
Experimental: as §1, §2

THP-1 cells = test: Growth inhibition, CellTiter-Blue viability, 72 h; assay type: cell-based; settings: Homo sapiens, THP-1 (wild-type Flt3), read-out: Growth Suppression in AML Cell Lines (IC50, nM) THP-1
Experimental: as §1, §2

MOLM-14 cells = test: Growth inhibition, CellTiter-Blue viability, 72 h; assay type: cell-based; settings: Homo sapiens, MOLM-14 (Flt3-ITD+), read-out: Growth Suppression in AML Cell Lines (IC50, nM) MOLM-14
Experimental: as §1, §2

[1] = tested on: Fes in TF-1/Flt3-ITD cells; test: Immunoprecipitation/immunoblot of Fes pY713 in TF-1/Flt3-ITD cells; assay type: cell-based, human; settings: compound at in vitro IC90 for Fes, 16 h (tandutinib: IC90 for Flt3-ITD, 6 h)
Experimental: (§3) AML cells (2.5 x 10^6 in 5 mL) were cultured in the presence of kinase inhibitors or DMSO alone for 6 to 16 hours prior to lysis by sonication in RIPA buffer (50 mM Tris-HCl, pH 7.4, 150 mM NaCl, 1 mM EDTA, 1% Triton X-100, 0.1% SDS, 1% sodium deoxycholate) supplemented with 1 mM sodium orthovanadate, 1 mM sodium fluoride, 5 units/ml Benzonase (Novagen), and SigmaFAST EDTA-free protease inhibitor cocktail (Sigma). Flt3 and Fes were immunoprecipitated from 1 mg of cell lysate with 2 μg of antibody and 25 μL of protein G-Sepharose beads (Life Technologies) overnight at 4°C. Immunoprecipitates were washed three times by resuspension in 1.0 ml of RIPA buffer. Immunoprecipitated proteins were separated by SDS-PAGE, transferred to PVDF membranes and probed with the indicated antibodies followed by alkaline phosphatase-linked secondary antibodies. CDP-Star Western Blot Chemiluminescence Reagent (Perkin-Elmer) was used for detection.
(§4) Raw fluorescence data were corrected for background and then normalized to cultures grown in the presence of the DMSO carrier solvent. Each condition was performed in triplicate, and results are presented as the mean of the normalized values ± the SD. The resulting dose-response curves were fitted by non-linear regression analysis for estimation of the IC50 values (see Table 2). […] Fes and Flt3 kinase proteins were then immunoprecipitated from cell lysates followed by immunoblotting with antibodies to phosphotyrosine (pTyr), the Fes activation loop phosphotyrosine (pY713), as well as the Flt3 and Fes proteins.

[2] = tested on: Flt3-ITD in MV4-11 and MOLM-14 cells; test: Immunoprecipitation/immunoblot of Flt3 phosphotyrosine content in AML cells; assay type: cell-based, human; settings: compound at in vitro IC90 for Fes, 16 h (tandutinib: IC90 for Flt3-ITD, 6 h)
Experimental: as §3
Fes and Flt3 kinase proteins were then immunoprecipitated from cell lysates, followed by immunoblotting with antibodies to phosphotyrosine (pTyr), the Fes activation loop phosphotyrosine (pY713), as well as the Flt3 and Fes proteins.

[3] = tested on: TF-1 cells transduced with an empty retroviral vector (Control); test: Inhibitor sensitivity of TF-1 cell populations, CellTiter-Blue, 72 h; assay type: cell-based, human; settings: Homo sapiens, TF-1; empty vector control, 72 h
Experimental: as §1
(§5) For each retroviral transduction, TF-1 cells (1 x 10^6) were suspended in 5 mL of undiluted viral supernatant and plated in one well of a 6-well tissue culture dish. Polybrene (Sigma) was added to a final concentration of 4 μg/mL and the TF-1 cells were centrifuged at 1000 x g for 3 hours to enhance retroviral mediated gene transfer. After centrifugation, the virus was removed and replaced with fresh medium.
as §4

TF-1/Flt3-D835Y cells = test: as above; assay type: cell-based, human
Experimental: as §1, §5, §4

TF-1/Flt3-ITD cells = test: as above; assay type: cell-based, human
Experimental: as §1, §5, §4

[4] = tested on: bone marrow mononuclear cells from normal donors; test: Apoptosis by flow cytometry for cell-surface phosphatidylserine in normal cells (non-specific cytotoxicity); assay type: cell-based, human; settings: 3 μM; three normal donors
Experimental: Cells were then analyzed on a BD Accuri C6 Flow cytometer and the resulting data were evaluated using the BD CSampler software.
The presence of apoptotic cells was then assayed 48 and 72 h later by flow cytometry for cell-surface phosphatidylserine. […] To assess non-specific cytotoxicity, bone marrow mononuclear cells from three normal donors were cultured and treated with inhibitors under identical conditions, followed by flow cytometry for apoptotic cells.

Flt3 = target: Flt3; set-up: method as in PMID 22520759; settings: cited from earlier work

| SMILES | IC50 (MOLM-13 cells) [nM] | IC50 (MV4-11 cells) [nM] | IC50 (THP-1 cells) [nM] | IC50 (MOLM-14 cells) [nM] | Inhibition of Fes activation loop phosphorylation in TF-1/Flt3-ITD cells [1] | Inhibition of Flt3-ITD phosphotyrosine content in MV4-11 and MOLM-14 cells [2] | IC50 [3] [nM] | IC50 (TF-1/Flt3-D835Y cells; Homo sapiens, TF-1, 72 h, read-out: Inhibitor sensitivity of TF-1 Cell Populations (IC50, nM) Flt3-D835Y) [nM] | IC50 (TF-1/Flt3-ITD cells; Homo sapiens, TF-1, 72 h, read-out: Inhibitor sensitivity of TF-1 Cell Populations (IC50, nM) Flt3-ITD) [nM] | Potency in TF-1/Flt3-ITD cells compared to the Flt3-ITD+ AML cells (TF-1/Flt3-ITD cells; growth inhibition) | Increase in apoptosis in normal bone marrow mononuclear cells [4] [%] | KINOMEscan binding to Flt3 (Flt3) | Activity on TF-1/Flt3-D835Y cell growth (TF-1/Flt3-D835Y cells; 72 h) | IC50 (TF-1/Flt3-D835Y cells; Homo sapiens, TF-1, 72 h; read-out: Inhibitor sensitivity of TF-1 Cell Populations (IC50, nM) Flt3-D835Y) [nM] | IC50 (TF-1/Flt3-ITD cells; Homo sapiens, TF-1, 72 h; read-out: Inhibitor sensitivity of TF-1 Cell Populations (IC50, nM) Flt3-ITD) [nM] |
| --- | --- | --- | --- | --- | --- | --- | --- | --- | --- | --- | --- | --- | --- | --- | --- |
| COc1cc(N2CCC(O)CC2)ccc1Nc1nc(Nc2ccccc2S(=O)(=O)C(C)C)c2cn[nH]c2n1 [WZ4-49-1] | 884 | 965 | > 3000 | 994 | only inhibited the activity of Fes | only inhibited Fes | > 3000 | 597 | 466 | about two-fold higher |  |  |  |  |  |
| CCN1CCN(Cc2ccc(NC(=O)c3ccc(C)c(Oc4ccnc5[nH]ccc45)c3)cc2C(F)(F)F)CC1 [HG7-92-01] | 93 | 19 | > 3000 | 34 | inhibited both Flt3-ITD and Fes | inhibited Flt3-ITD and Fes in both cell lines | > 1000 |  |  |  | ≤ 10 | bind to a wider range of kinases (including Flt3) | devoid of activity | > 1000 | 29 |
